Measured values: PubChem BioAssay AID248 (DTP/NCI, 2004)
“And” between values parts separate entries of the source, which are not always exact repeats. Identical values can stand only once. Inconclusive results and toxic doses are left out. Rule as the data show it: active = T/C of 150% or more; inactive = T/C below 125%.

Tested on: L1210 leukemia ip in BDF1 mice, survival T/C
Experiment: NCI In Vivo Anticancer Drug Screen. Data for tumor model L1210 Leukemia (intraperitoneal) in B6D2F1 (BDF1) mice
Conditions: higher = longer survival
How it was run: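 Mice bearing the transplanted tumor received compound or vehicle. Survival of the treated group was divided by that of the vehicle-treated control group to give the ratio.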

[1] = endpoint: mean survival time, dose: 100.0 mg/kg/injection, schedule: Q04DX003 (ip), vehicle: saline with Tween-80
[2] = endpoint: mean survival time, dose: 200.0 mg/kg/injection, schedule: Q04DX003 (ip), vehicle: saline with Tween-80
[3] = endpoint: mean survival time, dose: 400.0 mg/kg/injection, schedule: Q04DX003 (ip), vehicle: saline with Tween-80
[4] = endpoint: mean survival time, dose: 100.0 mg/kg/injection, schedule: Q04DX003 (ip), vehicle: Klucel (hydroxypropylcellulose) (HPC)
[5] = endpoint: mean survival time, dose: 200.0 mg/kg/injection, schedule: Q04DX003 (ip), vehicle: Klucel (hydroxypropylcellulose) (HPC)
[6] = endpoint: mean survival time, dose: 400.0 mg/kg/injection, schedule: Q04DX003 (ip), vehicle: Klucel (hydroxypropylcellulose) (HPC)

Measured: T/C

CS(=O)(=O)OCCCCOS(C)(=O)=O
inactive: endpoint: mean survival time, dose: 1.5 mg/kg/injection, schedule: Q04DX002 (ip), vehicle: saline with Tween-80 95 % of control and 106 % of control | endpoint: mean survival time, dose: 1.7 mg/kg/injection, schedule: Q01DX009 (ip), vehicle: saline with Tween-80 96 % of control and 108 % of control | endpoint: mean survival time, dose: 2.9 mg/kg/injection, schedule: Q04DX002 (ip), vehicle: saline with Tween-80 100 % of control and 107 % of control | endpoint: mean survival time, dose: 3.3 mg/kg/injection, schedule: Q01DX009 (ip), vehicle: saline with Tween-80 96 % of control and 105 % of control | endpoint: mean survival time, dose: 3.75 mg/kg/injection, schedule: Q01DX001 (ip), vehicle: carboxymethylcellulose (CMC) 103 % of control | endpoint: mean survival time, dose: 5.8 mg/kg/injection, schedule: Q04DX002 (ip), vehicle: saline with Tween-80 98 % of control and 102 % of control | endpoint: mean survival time, dose: 6.25 mg/kg/injection, schedule: Q01DX010 (ip), vehicle: saline 108 % of control and 118 % of control | endpoint: mean survival time, dose: 6.5 mg/kg/injection, schedule: Q01DX009 (ip), vehicle: saline with Tween-80 99 % of control and 105 % of control | endpoint: mean survival time, dose: 7.5 mg/kg/injection, schedule: Q01DX001 (ip), vehicle: carboxymethylcellulose (CMC) 112 % of control | endpoint: mean survival time, dose: 9.5 mg/kg/injection, schedule: Q02DX010 (ip), vehicle: carboxymethylcellulose (CMC) 111 % of control | endpoint: mean survival time, dose: 10.0 mg/kg/injection, schedule: Q01DX Z (ip), vehicle: carboxymethylcellulose (CMC) 104 % of control | endpoint: mean survival time, dose: 10.0 mg/kg/injection, schedule: Q02DX010 (ip), vehicle: carboxymethylcellulose (CMC) 97 % of control | endpoint: mean survival time, dose: 10.0 mg/kg/injection, schedule: Q02DX010 (ip), vehicle: other 112 % of control | endpoint: mean survival time, dose: 11.5 mg/kg/injection, schedule: Q04DX002 (ip), vehicle: saline with Tween-80 98 % of control and 109 % of control | endpoint: mean survival time, dose: 12.5 mg/kg/injection, schedule: Q01DX009 (ip), vehicle: saline 97 % of control and 104 % of control and 88 % of control | endpoint: mean survival time, dose: 12.5 mg/kg/injection, schedule: Q01DX010 (ip), vehicle: saline 116 % of control and 118 % of control | endpoint: mean survival time, dose: 12.5 mg/kg/injection, schedule: Q01DX Z (ip), vehicle: carboxymethylcellulose (CMC) 93 % of control and 102 % of control | endpoint: mean survival time, dose: 13.0 mg/kg/injection, schedule: Q01DX009 (ip), vehicle: saline with Tween-80 99 % of control and 101 % of control | endpoint: mean survival time, dose: 14.0 mg/kg/injection, schedule: Q02DX010 (ip), vehicle: carboxymethylcellulose (CMC) 96 % of control | endpoint: mean survival time, dose: 15.0 mg/kg/injection, schedule: Q01DX001 (ip), vehicle: carboxymethylcellulose (CMC) 101 % of control | endpoint: mean survival time, dose: 15.0 mg/kg/injection, schedule: Q02DX010 (ip), vehicle: carboxymethylcellulose (CMC) 98 % of control | endpoint: mean survival time, dose: 15.0 mg/kg/injection, schedule: Q02DX010 (ip), vehicle: other 104 % of control | endpoint: mean survival time, dose: 20.0 mg/kg/injection, schedule: Q01DX Z (ip), vehicle: carboxymethylcellulose (CMC) 103 % of control | endpoint: mean survival time, dose: 22.0 mg/kg/injection, schedule: Q02DX010 (ip), vehicle: carboxymethylcellulose (CMC) 103 % of control and 113 % of control | endpoint: mean survival time, dose: 22.0 mg/kg/injection, schedule: Q02DX010 (ip), vehicle: other 106 % of control | endpoint: mean survival time, dose: 23.0 mg/kg/injection, schedule: Q04DX002 (ip), vehicle: saline with Tween-80 98 % of control and 100 % of control | endpoint: mean survival time, dose: 25.0 mg/kg/injection, schedule: Q01DX009 (ip), vehicle: saline with Tween-80 101 % of control and 115 % of control | endpoint: mean survival time, dose: 25.0 mg/kg/injection, schedule: Q01DX009 (ip), vehicle: saline 96 % of control (2×) and 111 % of control | endpoint: mean survival time, dose: 25.0 mg/kg/injection, schedule: Q01DX Z (ip), vehicle: carboxymethylcellulose (CMC) 102 % of control and 105 % of control | endpoint: mean survival time, dose: 27.0 mg/kg/injection, schedule: Q01DX001 (ip), vehicle: carboxymethylcellulose (CMC) 96 % of control | endpoint: mean survival time, dose: 30.0 mg/kg/injection, schedule: Q01DX001 (ip), vehicle: carboxymethylcellulose (CMC) 106 % of control | endpoint: mean survival time, dose: 33.0 mg/kg/injection, schedule: Q02DX010 (ip), vehicle: other 112 % of control | endpoint: mean survival time, dose: 40.0 mg/kg/injection, schedule: Q01DX Z (ip), vehicle: carboxymethylcellulose (CMC) 110 % of control | endpoint: mean survival time, dose: 40.0 mg/kg/injection, schedule: Q01DX Z (oral), vehicle: saline 94 % of control | endpoint: mean survival time, dose: 41.0 mg/kg/injection, schedule: Q01DX001 (ip), vehicle: carboxymethylcellulose (CMC) 103 % of control | endpoint: mean survival time, dose: 46.0 mg/kg/injection, schedule: Q04DX002 (ip), vehicle: saline with Tween-80 104 % of control and 107 % of control | endpoint: mean survival time, dose: 49.0 mg/kg/injection, schedule: Q01DX009 (ip), vehicle: saline with Tween-80 103 % of control and 121 % of control | endpoint: mean survival time, dose: 50.0 mg/kg/injection, schedule: Q01DX009 (ip), vehicle: saline 98 % of control and 109 % of control and 120 % of control | endpoint: mean survival time, dose: 50.0 mg/kg/injection, schedule: Q01DX010 (ip), vehicle: saline 111 % of control and 88 % of control | endpoint: mean survival time, dose: 50.0 mg/kg/injection, schedule: Q01DX Z (ip), vehicle: carboxymethylcellulose (CMC) 103 % of control | endpoint: mean survival time, dose: 50.0 mg/kg/injection, schedule: Q02DX010 (ip), vehicle: carboxymethylcellulose (CMC) 101 % of control and 107 % of control | endpoint: mean survival time, dose: 50.0 mg/kg/injection, schedule: Q02DX010 (ip), vehicle: other 115 % of control | endpoint: mean survival time, dose: 60.0 mg/kg/injection, schedule: Q01DX001 (ip), vehicle: carboxymethylcellulose (CMC) 110 % of control | endpoint: mean survival time, dose: 61.0 mg/kg/injection, schedule: Q01DX001 (ip), vehicle: carboxymethylcellulose (CMC) 98 % of control | endpoint: mean survival time, dose: 75.0 mg/kg/injection, schedule: Q02DX010 (ip), vehicle: carboxymethylcellulose (CMC) 89 % of control | endpoint: mean survival time, dose: 80.0 mg/kg/injection, schedule: Q01DX Z (oral), vehicle: saline 105 % of control | endpoint: mean survival time, dose: 100.0 mg/kg/injection, schedule: Q01DX009 (ip), vehicle: saline 88 % of control | endpoint: mean survival time, dose: 100.0 mg/kg/injection, schedule: Q01DX Z (ip), vehicle: carboxymethylcellulose (CMC) 93 % of control | [1] 101 % of control | endpoint: mean survival time, dose: 120.0 mg/kg/injection, schedule: Q01DX001 (ip), vehicle: carboxymethylcellulose (CMC) 100 % of control | endpoint: mean survival time, dose: 160.0 mg/kg/injection, schedule: Q01DX Z (oral), vehicle: saline 108 % of control | [2] 104 % of control | [3] 104 % of control | endpoint: median survival time, dose: 10.0 mg/kg/injection, schedule: Q01DX009 (ip), vehicle: saline 105 % of control | endpoint: median survival time, dose: 12.5 mg/kg/injection, schedule: Q01DX009 (ip), vehicle: saline 95 % of control and 112 % of control | endpoint: median survival time, dose: 20.0 mg/kg/injection, schedule: Q01DX009 (ip), vehicle: saline 100 % of control | endpoint: median survival time, dose: 25.0 mg/kg/injection, schedule: Q01DX009 (ip), vehicle: saline 110 % of control and 112 % of control | endpoint: median survival time, dose: 40.0 mg/kg/injection, schedule: Q01DX009 (ip), vehicle: saline 100 % of control | endpoint: median survival time, dose: 50.0 mg/kg/injection, schedule: Q01DX009 (ip), vehicle: saline 100 % of control and 112 % of control | endpoint: median survival time, dose: 80.0 mg/kg/injection, schedule: Q01DX009 (ip), vehicle: saline 110 % of control | endpoint: median survival time, dose: 100.0 mg/kg/injection, schedule: Q01DX009 (ip), vehicle: saline 100 % of control | endpoint: median survival time, dose: 160.0 mg/kg/injection, schedule: Q01DX009 (ip), vehicle: saline 100 % of control

NC(=O)c1nccnc1C(N)=O
inactive: [4] 101 % of control | [1] 96 % of control | [5] 101 % of control | [2] 96 % of control | [6] 93 % of control | [3] 96 % of control

OCCN(Cc1cccnc1)Cc1ccccn1
inactive: endpoint: mean survival time, dose: 9.38 mg/kg/injection, schedule: Q01DX001 (ip), vehicle: saline 94 % of control | endpoint: mean survival time, dose: 18.75 mg/kg/injection, schedule: Q01DX001 (ip), vehicle: saline 100 % of control

CC(C)C1NC(=O)C2CCCN2C1=O (centres undefined)
inactive: endpoint: mean survival time, dose: 100.0 mg/kg/injection, schedule: Q04DX003 (ip), vehicle: saline sonified 98 % of control | endpoint: mean survival time, dose: 200.0 mg/kg/injection, schedule: Q04DX003 (ip), vehicle: saline sonified 96 % of control | endpoint: mean survival time, dose: 400.0 mg/kg/injection, schedule: Q04DX003 (ip), vehicle: saline sonified 97 % of control

S=c1nc[nH]c2ccccc12
inactive: endpoint: mean survival time, dose: 100.0 mg/kg/injection, schedule: Q01DX009 (ip), vehicle: Klucel (hydroxypropylcellulose) (HPC) 93 % of control | [4] 91 % of control | endpoint: mean survival time, dose: 200.0 mg/kg/injection, schedule: Q01DX009 (ip), vehicle: Klucel (hydroxypropylcellulose) (HPC) 95 % of control | [5] 94 % of control | endpoint: mean survival time, dose: 400.0 mg/kg/injection, schedule: Q01DX009 (ip), vehicle: Klucel (hydroxypropylcellulose) (HPC) 88 % of control | [6] 98 % of control

CC(c1ccccc1)C1N(c2ccccc2)CCN1c1ccccc1 (centres undefined)
inactive: [4] 94 % of control | [5] 100 % of control | [6] 102 % of control

NNC(=O)C(N)Cc1ccccc1 (centres undefined)
inactive: endpoint: mean survival time, dose: 100.0 mg/kg/injection, schedule: Q01DX001 (ip), vehicle: saline 101 % of control | endpoint: mean survival time, dose: 200.0 mg/kg/injection, schedule: Q01DX001 (ip), vehicle: saline 105 % of control
